According to US20040209934A1, “Protein phosphate inhibitors” (priority 2001, published 2004):
Read-outs that look alike come from different tables or passages of the source. *1 amine or outer side, *2 acyl side, *3 side chain or, on linkers, in order; H or OH if unused. Where a SMILES comes first, the peptide text is derived from it. Bridges are numbered along the chain shown (N, C = ends). [ ]: non-standard residue; d: D form. Adda = CO[C@@H](Cc1ccccc1)[C@@H](C)/C=C(C)/C=C/[C@H](N[*:1])[C@H](C)C(=O)[*:2]; dAsp(3S-Me) = C[C@H](C(=O)[*:3])[C@@H](N[*:1])C(=O)[*:2]; d(γGlu) = O=C(O)[C@@H](CCC(=O)[*:2])N[*:1]; NMeDha = C=C(NC)C(=O)O

Columns and labels:
[1] = tested on: A2780 (human ovarian carcinoma, p53 wt); assay: cells; conditions: A2780, 72 h, read-out: Cytotoxicity IC50, A2780 Ovarian
Description: (§1) The cell lines chosen for study include both normal (non-cancer) and tumour-derived cell lines that represent both haematopoietic and solid tumor types with varying cell cycle control mechanisms (ie p53 status); CCD-18Co (normal human colon), L1210 (murine leukaemia, p53 mt), HL60 (human leukaemia, p53 nul), A2780 (human ovarian carcinoma, p53 wt), ADDP (cisplatin resistant A2780 cells, p53 mt), HCT116 (human colon carcinoma, p53 wt), SW480 (human colon carcinoma, p53 wt), WiDr (human colon carcinoma, p53 mt), HT29 (human colon carcinoma, p53 mt) and 143BTK-(human oesteosarcoma) cells.
(§2) The MTT assay can be used assess cytotoxicity. This assay determines cell viability by the ability of mitochondrial dehydrogenase to produce formazan crystals from 3-(4,5-dimethylthiazol-2-yl)2,5-diphenyltetrazolium bromide. The viable cell number/well is directly proportional to the production of formazan, which following solubilization, can be measured spectrophotometrically (540 nm). […] This technique is also used by the NCI(National Cancer Institute, USA) to screen for new anticancer agents. The MTT assay may be performed 72 h after exposure of the cells to varying doses of the phosphatase inhibitors. Since these agents are likely to interfere with the cell cycle it is important to test the cytotoxicity for at least two-three cell divisions.

[2] = tested on: 143B (143BTK-, human oesteosarcoma); assay: cells; conditions: 72 h, read-out: Cytotoxicity IC50, 143B Ostesarcoma
Description: as §1, §2

[3] = tested on: HL60 (human leukaemia, p53 nul); assay: cells; type: cell-based
Description: (§3) The MTT assay can be used assess cytotoxicity.

[4] = tested on: HT29 (human colon carcinoma, p53 mt); assay: cells; type: cell-based
Description: as §3

[5] = tested on: WiDr (human colon carcinoma, p53 mt); assay: cells; type: cell-based
Description: as §3

PP1 [6] = target: T1, PP1 (Homo sapiens, UniProt P62136); assay: Protein phosphatase assay with [32P]-glycogen phosphorylase a as substrate, PP1; type: biochemical; set-up: made in house
T1 sequence (P62136 whole entry): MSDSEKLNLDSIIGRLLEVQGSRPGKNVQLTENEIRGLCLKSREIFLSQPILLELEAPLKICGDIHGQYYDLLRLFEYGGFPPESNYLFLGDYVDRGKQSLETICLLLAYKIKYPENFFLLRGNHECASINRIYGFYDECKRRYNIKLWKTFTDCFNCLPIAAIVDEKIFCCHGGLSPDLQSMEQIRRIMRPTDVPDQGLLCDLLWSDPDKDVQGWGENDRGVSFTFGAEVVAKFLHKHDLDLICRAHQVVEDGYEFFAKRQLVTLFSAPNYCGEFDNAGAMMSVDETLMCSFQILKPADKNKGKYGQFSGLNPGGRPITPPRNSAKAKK
Experimental: (§4) Protein phosphatase assays were carried out essentially as described (Collins, E.; Sim, A. T. R.; Methods in Molecular Biology 1998, 93, 79-102) using [^32P]-glycogen phosphorylase a as substrate and recombinant PP1 (Bernt, N. Methods in Molecular Biology, 1998, 93, 67-78) or partially purified (chicken skeletal muscle) PP2A catalytic subunits (Mackintosh, C. In Protein Phosphorylation: A Practical Approach, Ed D G Hardie, IRL, 1993). Briefly, enzyme activity was measured at 30 ° C. in a buffer (final volume of […]) containing 50 mM Tris-HCl (pH 7.5), 1 mM EGTA, 0.1 mM EDTA, 5 mM Caffeine, 0.1% mercaptoethanol, 0.3 mg/mL BSA. The concentration of PP1 or PP2A used was such that the reaction was limited to 15% dephosphorylation to ensure linearity. The reaction was started with the addition of […] [^32P]-glycogen phosphorylase a and terminated after 20 minutes by the addition of […] ice-cold 70% TCA. After 10 minutes on ice the sample was centrifuged and a […] aliquot of the supematant was removed for scintillation counting of the [^32p] released during the reaction.

PP2A = PP2A (Homo sapiens, UniProt P67775); conditions: read-out: PP2A protein phosphatase inhibition (IC50), cited from earlier work
Chain of PP2A (P67775 whole entry): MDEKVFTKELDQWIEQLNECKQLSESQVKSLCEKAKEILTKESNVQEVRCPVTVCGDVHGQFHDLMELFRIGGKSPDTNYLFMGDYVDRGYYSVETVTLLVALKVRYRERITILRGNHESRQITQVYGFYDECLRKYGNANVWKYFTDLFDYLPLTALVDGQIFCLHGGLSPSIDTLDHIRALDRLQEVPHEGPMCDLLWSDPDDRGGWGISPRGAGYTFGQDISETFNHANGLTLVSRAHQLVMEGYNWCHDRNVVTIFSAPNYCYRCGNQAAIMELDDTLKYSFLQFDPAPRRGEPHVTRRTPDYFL

PP1 [7] = target: T1, PP1; conditions: read-out: PP1 protein phosphatase inhibition (IC50), cited from earlier work
HCT116 cells = assay: Cell cycle analysis (propidium iodide, flow cytometry); type: cell-based, human; conditions: Cantharidin 25 μM, 6 h
Description: The distribution of cells into the various phases of the cell cycle can be analysed by measuring the DNA content of the cells, via propidium iodide staining and subsequent flow cytometric analysis. Thus senescent cells (G0) and cells in the first gap (G1) of the cell cycle will have approximately half of the DNA content of cells about to under go mitosis (G2+M), while those cells synthesising DNA (S-phase) will have an intermediary DNA content. Using this technology, the effect of these new drugs on cells in the various phases of the cycle can be determined.

[8] = tested on: ten difference cancer cell lines of ovarian, bone, colon and baematopoietic origin; assay: cells; conditions: read-out: Cytotoxicity IC50 values, range over ten cancer cell lines
[9] = target: partially purified (chicken skeletal muscle) PP2A catalytic subunits (Gallus gallus, UniProt P48463); type: biochemical
Chain of partially purified (chicken skeletal muscle) PP2A catalytic subunits (P48463 whole entry): as the sequence (P67775 whole entry) above, with D2E, V5S, T7A, K21R, K29R, R108P counted along it
Experimental: as §4

[10] = tested on: SW480 (human colon carcinoma, p53 wt); assay: cells; type: cell-based; conditions: Table 3, read-out: Cytotoxicity IC50, SW480
Description: as §3

[11] = tested on: L1210 (murine leukaemia, p53 mt); assay: cells; type: cell-based; conditions: Mus musculus, Table 3, read-out: Cytotoxicity IC50, L1210
Description: as §3

[12] = HL-60, 72 h exposure, background Table 2, read-out: Cytotoxicity IC50, HL60 Leukaemia
[13] = HT-29, 72 h exposure, background Table 2, read-out: Cytotoxicity IC50, HT29 Colon
[14] = 72 h exposure, background Table 2, read-out: Cytotoxicity IC50, WiDr Colon
[15] = Table 2 cantharimides, average of three experiments in triplicate, read-out: PP1 Inhibition IC50
[16] = naturally occurring toxins, background Table 1
[17] = HL-60, Table 3, read-out: Cytotoxicity IC50, HL60
[18] = HT-29, Table 3, read-out: Cytotoxicity IC50, HT29
[19] = Table 3 summary, read-out: PP1 Inhibition

Work on `CCCOC(=O)C1C(C(=O)O)[C@@H]2CC[C@H]1O2` (stereo partly shown) yielded an IC50 [1] of 110 ± 10 µM, an IC50 [2] of 450 ± 50 µM and an IC50 ([3]; HL-60, 72 h, read-out: Cytotoxicity IC50, HL60 Leukaemia) of 270 ± 15 µM. It also gave an IC50 ([4]; HT-29, 72 h, read-out: Cytotoxicity IC50, HT29 Colon) of 15 ± 5 µM and an IC50 ([5]; 72 h, read-out: Cytotoxicity IC50, WiDr Colon) of 33 ± 6 µM.

`O=C1OC(O)[C@@H]2[C@H]1[C@H]1CC[C@@H]2O1` (stereo partly shown) showed an IC50 [1] of 333 ± 55 µM, an IC50 [2] of 454 ± 50 µM and an IC50 [3, 12] of 393 ± 103 µM. The IC50 [4, 13] was 14 ± 0.3 µM and the IC50 [5, 14] was 15 ± 3 µM.

In the case of `O=C(O)C(Cc1ccc(O)cc1)N1C(=O)C2C3CCC(O3)C2C1=O` (single isomer, unassigned) [Compound 16], the IC50 (PP1 [6]; [15]) is reported as 101 ± 34 µM.

For `O=C(O)C(Cc1ccc(O)cc1)N1C(=O)C2C3CCC(O3)C2C1=O` (single isomer, unassigned) [Compound 17], the IC50 (PP1 [6]; [15]) was 570 ± 330 µM.

For `COC[C@@H]([C@H](O)[C@H](O)C(=O)NCC[C@H](C)c1nc(/C=C/C[C@@H]2O[C@]3(C[C@@H](O)[C@@H]2C)O[C@H]([C@H](C[C@H](O)[C@H](C)[C@H](O)[C@H](C)/C=C(C)/C(C)=C/C=C/C(C)=C\C#N)OC)[C@H](OP(=O)(O)O)C3(C)C)co1)N(C)C` [Calyculin A], the IC50 (PP2A; [16]) is given as 500 pM and the IC50 (PP1 [7]) is given as 0.002 µM.

For `C[C@@]12C(=O)OC(=O)[C@]1(C)[C@H]1CC[C@@H]2O1` [Compound 1, cantharidin], the “Cell cycle distribution, S-phase” value (HCT116 cells) was “significant increased S-phase population” and the IC50 [8] was 6 to 18 µM.

For `O=C1OC(=O)[C@H]2[C@@H]1[C@@H]1CC[C@H]2O1` [Compound 3, norcantharidin, reference compound], the IC50 (PP1 [6]; [15]) was 5.31 ± 0.36 µM.

For `C[C@H](C(=O)O)N1C(=O)C2C3CCC(O3)C2C1=O` (stereo partly shown) [Compound 4], the “PP2A inhibition, in words” value [9] was “marginal activity” and the IC50 (PP1 [6]; [15]) was greater than 1000 µM.

In the case of `C[C@@H](C(=O)O)N1C(=O)C2C3CCC(O3)C2C1=O` (stereo partly shown) [Compound 5], the IC50 (PP1 [6]; [15]) is reported as greater than 1000 µM.

`O=C(O)[C@@H](Cc1ccccc1)N1C(=O)C2C3CCC(O3)C2C1=O` (stereo partly shown) [Compound 6] showed an IC50 (PP1 [6]; [15]) greater than 1000 µM.

`O=C(O)[C@H](Cc1ccccc1)N1C(=O)C2C3CCC(O3)C2C1=O` (stereo partly shown) [Compound 7] showed an IC50 (PP1 [6]; [15]) greater than 1000 µM.

Work on `CC(C)C[C@H](C(=O)O)N1C(=O)C2C3CCC(O3)C2C1=O` (stereo partly shown) [Compound 8] yielded an IC50 (PP1 [6]; [15]) greater than 1000 µM.

`CC(C)C[C@@H](C(=O)O)N1C(=O)C2C3CCC(O3)C2C1=O` (stereo partly shown) [Compound 9] gave an IC50 (PP1 [6]; [15]) greater than 1000 µM.

`CC[C@@H](C)[C@H](C(=O)O)N1C(=O)C2C3CCC(O3)C2C1=O` (stereo partly shown) [Compound 10] gave an IC50 (PP1 [6]; [15]) greater than 1000 µM.

In the case of `CC[C@H](C)[C@@H](C(=O)O)N1C(=O)C2C3CCC(O3)C2C1=O` (stereo partly shown) [Compound 11], the IC50 (PP1 [6]; [15]) is reported as greater than 1000 µM.

Work on `O=C(O)[C@@H](Cc1c[nH]c2ccccc12)N1C(=O)C2C3CCC(O3)C2C1=O` (stereo partly shown) [Compound 12] yielded an IC50 (PP1 [6]; read-out: PP1 IC50) of 770 ± 146 µM.

Molecule `O=C(O)[C@H](Cc1c[nH]c2ccccc12)N1C(=O)C2C3CCC(O3)C2C1=O` (stereo partly shown) [Compound 13] has an IC50 (PP1 [6]; read-out: PP1 IC50) of 312 ± 153 µM.

In the case of `O=C(O)[C@@H](Cc1cnc[nH]1)N1C(=O)C2C3CCC(O3)C2C1=O` (stereo partly shown) [Compound 14], the IC50 [3, 17] is reported as 21 ± 13 µM, the IC50 [10] is reported as 32 ± 12 µM and the IC50 [11] is reported as 6 ± 1 µM. For the same molecule, the IC50 [4, 18] was 28 ± 9 µM, the IC50 (PP1 [6]; [15]) was 3.22 ± 0.7 µM and the IC50 (PP1 [6]; [19]) was 3.22 ± 0.7 µM.

With `O=C(O)[C@H](Cc1cnc[nH]1)N1C(=O)C2C3CCC(O3)C2C1=O` (stereo partly shown) [Compound 15] the IC50 [3, 17] was 55 ± 24 µM, the IC50 [10] was 61 ± 30 µM and the IC50 [11] was 30 ± 14 µM. The IC50 [4, 18] was 28 ± 10 µM, the IC50 (PP1 [6]; [15]) was 2.82 ± 0.6 µM and the IC50 (PP1 [6]; [19]) was 2.82 ± 0.6 µM.

Work on `NC(=O)CC[C@H](C(=O)O)N1C(=O)C2C3CCC(O3)C2C1=O` (stereo partly shown) [Compound 18] yielded an IC50 (PP1 [6]; [15]) of 95 ± 5 µM.

`CSCC[C@@H](C(=O)O)N1C(=O)C2C3CCC(O3)C2C1=O` (stereo partly shown) [Compound 19] showed an IC50 (PP1 [6]; [15]) greater than 1000 µM.

For `C[C@@](O)(/C=C/[C@H]1CC=CC(=O)O1)[C@@H](C[C@@H](O)\C=C/C=C\C=C\CO)OP(=O)(O)O` [Fostriecin], the IC50 (PP2A; [16]) is listed as 3400 pM and the IC50 (PP1 [7]; [16]) is listed as 131 µM.

For `C=C1C(=O)N[C@H](C)C(=O)N[C@@H](CC(C)C)C(=O)N[C@@H](C(=O)O)[C@H](C)C(=O)N[C@@H](CCCNC(=N)N)C(=O)N[C@@H](/C=C/C(C)=C/[C@H](C)[C@H](Cc2ccccc2)OC)[C@H](C)C(=O)N[C@@H](C(=O)O)CCC(=O)N1C` [Microcystin LR] (R[Adda][d(γGlu)][NMeDha][dA]L[dAsp(3S-Me)]-OH; lactam N-7), the IC50 (PP2A) is listed as 40 pM and the IC50 (PP1 [7]) is listed as 0.0017 µM.

For `C=C1[C@@H](O)[C@@H]2O[C@]3(CC[C@H](/C=C/[C@@H](C)[C@@H]4CC(C)=C[C@@]5(O[C@H](C[C@@](C)(O)C(=O)O)CC[C@H]5O)O4)O3)CC[C@H]2O[C@@H]1[C@@H](O)C[C@H](C)[C@H]1O[C@@]2(CCCCO2)CC[C@H]1C` [Okadaic acid], the IC50 (PP2A; [16]) is listed as 510 pM.

Molecule `CCOC(=O)C1C(C(=O)O)[C@@H]2CC[C@H]1O2` (stereo partly shown) [R = CH3CH2] has an IC50 (PP1 [6]; read-out: PP1 IC50) of 2.96 µM.

In the case of `CO[C@H]([C@H](O)CC(=O)[C@@H](C)[C@@H](O)CC[C@@H](C)[C@@H]1O[C@]2(CC[C@@H](C)[C@H](CC[C@H](C)C(C)=O)O2)CC[C@@H]1C)[C@H](OC(=O)C[C@@H](O)C1=C(C)C(=O)OC1=O)C(C)C` [Tautomycin], the IC50 (PP2A; [16]) is given as 1000 pM and the IC50 (PP1 [7]; [16]) is given as 0.0003 µM.

With `C[C@@]12C(=O)OC(=O)[C@]1(C)[C@H]1CC[C@@H]2O1` [drawing 2] the IC50 [1] was 10 ± 2 µM, the IC50 [2] was 10 ± 1 µM and the IC50 [3, 12] was 10 ± 2 µM. The IC50 [4, 13] was 6.5 ± 0.5 µM and the IC50 [5, 14] was 6.1 ± 0.5 µM.
